Structures can show the parent of a compound that is named as a salt. Where two headings read alike, the source gives them in different places.
Columns and labels:
[1] = Exploratory single dose PK/PD (1.0/5.0/10.0 mg/kg) in cats: pharmacokinetics; type: in vivo; conditions: cat; for AUC(0-inf) / Cmax / MRT / Tmax / half-life: male, domestic short hair, plasma, free base by LC-MS/MS; for half-life: read-out: T1/2, mean (converted)
Procedure: The aim of this study was to investigate the PK/PD behaviour of 1-[(3-cyano-pyridin-2-yl)methyl]-3-methyl-7-(2-butyn-1-yl)-8-[3-(R)-amino-piperidin-1-yl]-xanthine in the cat following a single oral administration of 0, 1, 5 and 10 mg/kg body weight (dosages were based on the free base: 1 mg 1-[(3-cyano-pyridin-2-yl)methyl]-3-methyl-7-(2-butyn-1-yl)-8-[3-(R)-amino-piperidin-1-yl]-xanthine monohydrochloride corresponds to 0.923 mg 1-[(3-cyano-pyridin-2-yl)methyl]-3-methyl-7-(2-butyn-1-yl)-8-[3-(R)-amino-piperidin-1-yl]-xanthine free base).
(§1) Twelve clinically healthy male adult domestic short hair cats with a body weight range of 3.5-4.7 kg were used in this study. All animals were treated orally once via a stomach tube. Blood samples for pharmacokinetic and pharmacodynamic (DPP IV activity) investigations were drawn at 0 h (i.e. prior to treatment), 30 min as well as 1, 2, 4, 8, 8.5, 9, 12, 24, 36, 48, 72, 84 and 96 h after treatment. Blood samples for pharmacodynamic (glucagon-like peptide 1 concentrations) investigations were drawn at −16 (i.e. prior to feeding), −15.5, −15 h as well as at 8 h (i.e. prior to feeding), 8.5 and 9 h after treatment.
PK data for 1-[(3-cyano-pyridin-2-yl)methyl]-3-methyl-7-(2-butyn-1-yl)-8-[3-(R)-amino-piperidin-1-yl]-xanthine free base were determined with a validated LC-MS/MS method and are summarized in Table 6.

diabetic db/db mice = test: Delayed OGTT in diabetic db/db mice; type: in vivo, mouse; conditions: 1 mg/kg 16 hours before the test
Procedure: A delayed oral glucose tolerance test (OGTT) was applied to diabetic db/db mice and diabetic ZDF rats, as describes in the following.
Male obese diabetic db/db mice (C57BL/KSJ@Rj-db) were obtained from Janvier (France). Animals were fed ad libitum with a standard pelleted diet (Diet No. 3438 [containing 19% protein, 4.5% fat], Provimi Kliba, Switzerland) and had free access to water. Animals were housed in groups with a 12 h/12 h light/dark cycle (lights out between 6 p.m. and 6 a.m.). The mice used for these experiments were between 9 and 10 weeks of age.
The day before the OGTT, a blood sample from db/db mice or ZDF rats fasted for 2 hours was obtained by cutting the tip of the tail without anaesthesia and the animals were randomized for glucose (n=7 per group). The animals were fed again for 2 hours and then orally administered with either vehicle or 1-[(3-cyano-pyridin-2-yl)methyl]-3-methyl-7-(2-butyn-1-yl)-8-[3-(R)-amino-piperidin-1-yl]-xanthine monohydrochloride at doses between 0.3 and 3 mg/kg bw. A basal blood sample (pre-load) was obtained the next morning after overnight fasting for 16 hours by cutting the tip of the tail without anaesthesia. […] Additional blood samples were taken from the tip of the tail 30 min, 60 min, 90 min, 120 min, and 180 min after the glucose load, and blood glucose was measured. […]

GLP-1 = test: Single dose study (1.0/5.0/10.0 mg/kg) in cats: GLP-1 after feeding; type: in vivo, cat; conditions: single oral 1, 5, 10 mg/kg; feeding at 8 h after treatment
Procedure: as §1

In the case of `CC#CCn1c(N2CCC[C@@H](N)C2)nc2c1c(=O)n(Cc1ncccc1C#N)c(=O)n2C` [1-[(3-cyano-pyridin-2-yl)methyl]-3-methyl-7-(2-butyn-1-yl)-8-[3-(R)-amino-piperidin-1-yl]-xanthine monohydrochloride], the half live ([1]; single oral 1.0, 5.0, 10.0 mg/kg) is reported as “over 25 hours”, the AUC(0-inf) ([1]; 1.0 mg/kg single oral) is reported as 1.14 µM·h and the Cmax ([1]; 1.0 mg/kg single oral) is reported as 0.175 µM. For the same compound, the MRT ([1]; 1.0 mg/kg single oral) was 12.3 h, the Tmax ([1]; 1.0 mg/kg single oral) was 1.33 h and the half-life ([1]; 1.0 mg/kg single oral) was 25.4 h. The AUC(0-inf) ([1]; 5.0 mg/kg single oral) was 5.48 µM·h, the Cmax ([1]; 5.0 mg/kg single oral) was 0.931 µM and the MRT ([1]; 5.0 mg/kg single oral) was 6.76 h. For the same compound, the Tmax ([1]; 5.0 mg/kg single oral) was 1.83 h, the half-life ([1]; 5.0 mg/kg single oral) was 28.8 h and the AUC(0-inf) ([1]; 10 mg/kg single oral) was 26.3 µM·h. The Cmax ([1]; 10 mg/kg single oral) was 5.47 µM, the MRT ([1]; 10 mg/kg single oral) was 5.73 h and the Tmax ([1]; 10 mg/kg single oral) was 1.33 h. The half-life ([1]; 10 mg/kg single oral) was 37.6 h, the “reduction of glucose AUC in OGTT” value (diabetic db/db mice) was 39% and the “mean GLP-1 concentration after feeding” value (GLP-1) was “an increase of the mean GLP-1 concentration was observed after feeding”.
